The NIST ThermoML archive (doi:10.1016/j.jct.2018.08.035)

Assay: xn = mol fraction of the nth substance listed
Conditions: 100 kPa, Liquid, Vibrating tube method

CCC(O)CC [3-pentanol] + C[N+](=O)[O-]
Conditions | mass density [kg/m3]
286.95 K, x1 = 0.629 | 904.586
287.05 K, x1 = 0.629 | 904.424
287.15 K, x1 = 0.629 | 904.324
287.25 K, x1 = 0.629 | 904.302
287.35 K, x1 = 0.629 | 904.234
287.45 K, x1 = 0.629 | 904.174
287.55 K, x1 = 0.629 | 904.105
287.66 K, x1 = 0.629 | 904.02
287.75 K, x1 = 0.629 | 903.747
287.86 K, x1 = 0.629 | 903.73
287.96 K, x1 = 0.629 | 903.653
288.06 K, x1 = 0.629 | 903.559
288.16 K, x1 = 0.629 | 903.339
288.26 K, x1 = 0.629 | 903.249
288.36 K, x1 = 0.629 | 903.208
288.46 K, x1 = 0.629 | 903.194
288.56 K, x1 = 0.629 | 903.023
288.66 K, x1 = 0.629 | 902.916
288.75 K, x1 = 0.629 | 902.883
288.86 K, x1 = 0.629 | 902.656
288.95 K, x1 = 0.629 | 902.639
289.06 K, x1 = 0.629 | 902.563
289.15 K, x1 = 0.246 | 1016.83
289.15 K, x1 = 0.266 | 1014.93
289.15 K, x1 = 0.275 | 1013.85
289.15 K, x1 = 0.3 | 1007.8
289.15 K, x1 = 0.325 | 1002.84
289.15 K, x1 = 0.338 | 1001.68
289.15 K, x1 = 0.363 | 999.874
289.15 K, x1 = 0.382 | 999.889
289.15 K, x1 = 0.407 | 999.35
289.15 K, x1 = 0.486 | 980.562
289.15 K, x1 = 0.488 | 978.895
289.15 K, x1 = 0.546 | 955.829
289.15 K, x1 = 0.573 | 937.786
289.15 K, x1 = 0.615 | 911.044
289.15 K, x1 = 0.629 | 902.484
289.16 K, x1 = 0.587 | 928.424
289.25 K, x1 = 0.246 | 1015.69
289.25 K, x1 = 0.266 | 1014.12
289.25 K, x1 = 0.275 | 1013.22
289.25 K, x1 = 0.3 | 1007.17
289.25 K, x1 = 0.325 | 1002.28
289.25 K, x1 = 0.338 | 1000.75
289.25 K, x1 = 0.363 | 998.168
289.25 K, x1 = 0.382 | 998.358
289.25 K, x1 = 0.407 | 997.887
289.25 K, x1 = 0.414 | 998.161
289.25 K, x1 = 0.486 | 979.734
289.25 K, x1 = 0.488 | 978.223
289.25 K, x1 = 0.546 | 953.328
289.25 K, x1 = 0.573 | 937.432
289.25 K, x1 = 0.587 | 924.098
289.25 K, x1 = 0.629 | 902.36
289.26 K, x1 = 0.615 | 910.892
289.35 K, x1 = 0.3 | 1006.58
289.35 K, x1 = 0.338 | 999.725
289.36 K, x1 = 0.246 | 1014.41
289.36 K, x1 = 0.266 | 1013.24
289.36 K, x1 = 0.275 | 1012.41
289.36 K, x1 = 0.325 | 1001.72
289.36 K, x1 = 0.363 | 996.975
289.36 K, x1 = 0.382 | 996.614
289.36 K, x1 = 0.407 | 996.236
289.36 K, x1 = 0.414 | 996.775
289.36 K, x1 = 0.486 | 978.988
289.36 K, x1 = 0.488 | 977.267
289.36 K, x1 = 0.546 | 952.752
289.36 K, x1 = 0.573 | 936.899
289.36 K, x1 = 0.587 | 923.859
289.36 K, x1 = 0.615 | 909.942
289.36 K, x1 = 0.629 | 902.109
289.45 K, x1 = 0.246 | 1013.13
289.45 K, x1 = 0.266 | 1012.22
289.45 K, x1 = 0.275 | 1011.52
289.45 K, x1 = 0.3 | 1005.82
289.45 K, x1 = 0.325 | 1001.04
289.45 K, x1 = 0.338 | 998.278
289.45 K, x1 = 0.363 | 996.016
289.45 K, x1 = 0.382 | 994.795
289.45 K, x1 = 0.407 | 994.989
289.45 K, x1 = 0.414 | 995.114
289.45 K, x1 = 0.486 | 977.635
289.45 K, x1 = 0.488 | 975.638
289.45 K, x1 = 0.546 | 951.819
289.45 K, x1 = 0.573 | 936.914
289.45 K, x1 = 0.587 | 923.684
289.45 K, x1 = 0.629 | 901.973
289.46 K, x1 = 0.615 | 903.573
289.55 K, x1 = 0.266 | 1011
289.55 K, x1 = 0.3 | 1005.09
289.55 K, x1 = 0.325 | 1000.44
289.55 K, x1 = 0.407 | 993.27
289.55 K, x1 = 0.486 | 976.784
289.55 K, x1 = 0.546 | 950.242
289.55 K, x1 = 0.573 | 934.004
289.55 K, x1 = 0.629 | 901.33
289.56 K, x1 = 0.246 | 1011.83
289.56 K, x1 = 0.275 | 1010.74
289.56 K, x1 = 0.338 | 998.17
289.56 K, x1 = 0.363 | 995.361
289.56 K, x1 = 0.382 | 993.579
289.56 K, x1 = 0.414 | 993.6
289.56 K, x1 = 0.488 | 974.397
289.56 K, x1 = 0.587 | 923.551
289.56 K, x1 = 0.615 | 903.035
289.65 K, x1 = 0.246 | 1010.76
289.65 K, x1 = 0.266 | 1009.81
289.65 K, x1 = 0.275 | 1009.82
289.65 K, x1 = 0.3 | 1004.38
289.65 K, x1 = 0.325 | 999.918
289.65 K, x1 = 0.363 | 994.656
289.65 K, x1 = 0.382 | 992.659
289.65 K, x1 = 0.407 | 991.642
289.65 K, x1 = 0.414 | 991.992
289.65 K, x1 = 0.486 | 975.844
289.65 K, x1 = 0.488 | 973.516
289.65 K, x1 = 0.546 | 949.056
289.65 K, x1 = 0.573 | 932.207
289.65 K, x1 = 0.587 | 923.409
289.65 K, x1 = 0.615 | 903.013
289.65 K, x1 = 0.629 | 896.019
289.66 K, x1 = 0.338 | 997.588
289.75 K, x1 = 0.246 | 1009.91
289.75 K, x1 = 0.266 | 1008.57
289.75 K, x1 = 0.275 | 1008.78
289.75 K, x1 = 0.3 | 1003.47
289.75 K, x1 = 0.325 | 999.093
289.75 K, x1 = 0.363 | 994.035
289.75 K, x1 = 0.382 | 991.551
289.75 K, x1 = 0.407 | 989.735
289.75 K, x1 = 0.414 | 990.174
289.75 K, x1 = 0.486 | 974.653
289.75 K, x1 = 0.488 | 972.561
289.75 K, x1 = 0.546 | 947.686
289.75 K, x1 = 0.573 | 929.383
289.75 K, x1 = 0.587 | 924.024
289.75 K, x1 = 0.615 | 902.898
289.76 K, x1 = 0.338 | 996.84
289.85 K, x1 = 0.266 | 1007.2
289.85 K, x1 = 0.275 | 1007.7
289.85 K, x1 = 0.3 | 1002.58
289.85 K, x1 = 0.325 | 998.305
289.85 K, x1 = 0.363 | 993.362
289.85 K, x1 = 0.382 | 990.377
289.85 K, x1 = 0.407 | 988.132
289.85 K, x1 = 0.414 | 988.452
289.85 K, x1 = 0.486 | 973.161
289.85 K, x1 = 0.488 | 971.375
289.85 K, x1 = 0.546 | 946.847
289.85 K, x1 = 0.573 | 928.807
289.85 K, x1 = 0.587 | 917.506
289.86 K, x1 = 0.246 | 1009.43
289.86 K, x1 = 0.338 | 996.331
289.86 K, x1 = 0.615 | 902.789
289.95 K, x1 = 0.266 | 1005.77
289.95 K, x1 = 0.275 | 1006.41
